The source of these data is ChEMBL document CHEMBL5543120, “Discovery of Novel 5,6-Dihydro-4H-pyrido[2,3,4-de]quinazoline Irreversible Inhibitors Targeting Both Wild-Type and A775_G776insYVMA Mutated HER2 Kinases” (J Med Chem, 2024).

A word on the clearance: it is the rate of elimination divided by the concentration. One may read the Vd as the apparent volume that relates the amount in the body to the concentration in plasma or blood. Low values mean little distribution into tissue, high ones wide distribution into tissue. In general, bioavailability refers to dose-corrected exposure relative to a reference, in per cent. What is called half-life is the time in which the quantity being followed falls by half. Broadly, the AUC(0-t) is the area under the concentration-time curve up to a stated or last time point. Higher therefore signals high exposure. The Tmax is the time at which the peak concentration occurs. For orientation: Cmax means the highest concentration seen after dosing.

Data set [1] in a line: in vivo. To be noted: rat, iv, 3 mg/kg.
Data set [2] can be described thus: in vivo. To be noted: rat, iv, 3 mg/kg. The source holds these as a separate data set.
Data set [3] is described as follows: in vivo. The note with it: rat, po, 10 mg/kg.
A short description of data set [4]: in vivo. To be noted: rat, iv, 3 mg/kg. This is another data set of the same source.
Data set [5] can be described thus: in vivo. To be noted: rat, iv, 3 mg/kg. The source holds these as a separate data set.
The nature of data set [6]: in vivo. To be noted: rat, po, 10 mg/kg. The source holds these as a separate data set.
Data set [7] can be described thus: in vivo. To be noted: rat, po, 10 mg/kg. This is another data set of the same source.
Data set [8] can be described thus: in vivo. The note with it: rat, po, 10 mg/kg. This is another data set of the same source.
The nature of data set [9]: in vivo. To be noted: rat, po, 10 mg/kg. This is another data set of the same source.

Consider `CCOc1cc2ncc(C#N)c(Nc3ccc(OCc4ccccn4)c(Cl)c3)c2cc1NC(=O)/C=C/CN(C)C` [NERATINIB], for which the clearance in the data set “in vivo [1]” came out at 20.8 mL/min/kg. This compound also yielded a volume of distribution (Vd) in “in vivo [2]” of 5.01 L/kg. Further, the bioavailability in the data set “in vivo [3]” was 18.2%.
Regarding `CN(C)C/C=C/C(=O)Nc1ccc2ncnc(Nc3ccc(OCc4ccccn4)c(Cl)c3)c2c1-c1ccccc1`, the half-life is 3.81 h in the data set “in vivo [4]” and 4.1 h in “in vivo [7]”. The compound further showed a clearance in “in vivo [1]” of 38.4 mL/min/kg. In the data set “in vivo [2]”, the Vd is 8.1 L/kg. This compound showed a bioavailability in “in vivo [3]” of 30.4%. For the same compound, the values for the AUC(0-t) in the data set “in vivo [5]” and in “in vivo [6]” were 1290 ng·h/mL and 1300 ng·h/mL, respectively. Also, the Tmax in the data set “in vivo [8]” worked out at 3.67 h. Further, the Cmax in “in vivo [9]” is 124 ng/mL.
For the compound `CN1CCC[C@@H]1/C=C/C(=O)Nc1ccc2ncnc3c2c1CCN3c1ccc(OCc2ccccn2)c(Cl)c1`, the half-life in “in vivo [4]” was 4.88 h; in the data set “in vivo [7]” it was 6.46 h. The compound further showed a clearance in “in vivo [1]” of 74.6 mL/min/kg. In “in vivo [2]”, the Vd stood at 17.8 L/kg. The compound also came in with a bioavailability in “in vivo [3]” of 7.43%. Also, the AUC(0-t) was 667 ng·h/mL in “in vivo [5]” and 157 ng·h/mL in the data set “in vivo [6]”. Moreover, the Tmax in “in vivo [8]” is 0.5 h. The compound also came in with a Cmax in the data set “in vivo [9]” of 23.8 ng/mL.
